The source made the active and inactive calls. The rule behind the calls is not given here.
What was measured:
Neuron [1] = experiment: Neuroplasticity effect in Wistar rat brain cortical neuron assessed as increase in neurite outgrowth at 0.25 to 10 uM after 72 hrs; type: functional, cell-based; conditions: dose 0.25-10 µM
Neuron [2] = experiment: Cytotoxicity against Wistar rat brain cortical neurons assessed as decrease in average number of neurites per neuron at 0.25 to 10 uM; type: toxicity, cell-based; conditions: dose 0.25-10 µM
[3] = target: T1, Muscarinic acetylcholine receptor M1 (Homo sapiens) (UniProt P11229); experiment: Agonist activity at recombinant human M1 receptor expressed in CHO-K1 cells incubated for 15 mins by aequorin assay; type: functional, cell-based
T1 sequence (whole entry): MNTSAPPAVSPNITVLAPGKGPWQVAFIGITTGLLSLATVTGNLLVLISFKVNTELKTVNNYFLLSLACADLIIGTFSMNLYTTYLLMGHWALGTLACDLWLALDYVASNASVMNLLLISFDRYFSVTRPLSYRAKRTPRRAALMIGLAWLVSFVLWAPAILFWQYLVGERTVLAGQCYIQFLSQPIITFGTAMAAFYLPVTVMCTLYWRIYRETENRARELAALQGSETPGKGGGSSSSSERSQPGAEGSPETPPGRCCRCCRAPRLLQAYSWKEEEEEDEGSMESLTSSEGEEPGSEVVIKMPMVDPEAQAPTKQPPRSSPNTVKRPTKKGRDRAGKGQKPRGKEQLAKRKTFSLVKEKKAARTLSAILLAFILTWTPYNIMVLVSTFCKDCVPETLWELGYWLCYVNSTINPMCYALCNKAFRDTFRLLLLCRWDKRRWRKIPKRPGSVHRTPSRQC

[4] = target: T2, Muscarinic acetylcholine receptor M4 (Homo sapiens) (UniProt P08173); experiment: Displacement of [3H]-Scopolamine from M4 receptor (unknown origin) by Topcount scintillation counting method
T2 sequence (whole entry): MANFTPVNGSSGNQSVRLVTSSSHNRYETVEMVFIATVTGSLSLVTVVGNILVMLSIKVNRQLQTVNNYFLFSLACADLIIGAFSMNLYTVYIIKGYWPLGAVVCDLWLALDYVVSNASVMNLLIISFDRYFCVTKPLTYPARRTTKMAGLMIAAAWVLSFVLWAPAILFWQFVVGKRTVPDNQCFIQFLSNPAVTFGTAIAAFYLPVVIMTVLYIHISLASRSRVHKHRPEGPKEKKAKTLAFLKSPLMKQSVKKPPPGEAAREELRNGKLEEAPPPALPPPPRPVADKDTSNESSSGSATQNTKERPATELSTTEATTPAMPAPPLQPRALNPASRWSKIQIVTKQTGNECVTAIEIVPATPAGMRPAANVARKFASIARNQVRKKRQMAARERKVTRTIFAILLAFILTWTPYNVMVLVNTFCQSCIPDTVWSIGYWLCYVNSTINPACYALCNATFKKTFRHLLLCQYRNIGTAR

[5] = target: 5-hydroxytryptamine receptor 2A (Homo sapiens) (UniProt P28223); experiment: Displacement of [3H]-DOI from 5HT2AR (unknown origin) by Topcount scintillation counting method
Chain of 5-hydroxytryptamine receptor 2A (Homo sapiens) (P28223 whole entry): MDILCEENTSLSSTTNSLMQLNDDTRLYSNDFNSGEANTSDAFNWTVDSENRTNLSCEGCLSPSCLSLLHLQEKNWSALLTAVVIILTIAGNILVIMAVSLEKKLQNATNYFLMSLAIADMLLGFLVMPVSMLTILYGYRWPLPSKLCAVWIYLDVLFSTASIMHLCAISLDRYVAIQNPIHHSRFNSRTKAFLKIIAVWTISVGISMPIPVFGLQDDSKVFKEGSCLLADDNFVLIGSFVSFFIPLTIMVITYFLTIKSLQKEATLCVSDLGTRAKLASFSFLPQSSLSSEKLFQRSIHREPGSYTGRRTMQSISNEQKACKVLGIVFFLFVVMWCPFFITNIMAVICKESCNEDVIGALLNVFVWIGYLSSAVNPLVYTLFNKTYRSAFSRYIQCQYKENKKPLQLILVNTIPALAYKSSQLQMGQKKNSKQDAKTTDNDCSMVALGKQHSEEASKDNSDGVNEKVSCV

[6] = target: 5-hydroxytryptamine receptor 2A (Homo sapiens) (UniProt P28223); experiment: Antagonist activity at recombinant human 5HT2AR expressed in CHO-K1 cells incubated for 60 mins in presence of alpha-Me-5HT by HTRF method; type: functional, cell-based
[7] = target: T3, 5-hydroxytryptamine receptor 2C (Homo sapiens) (UniProt P28335); experiment: Antagonist activity at recombinant human 5HT2CR expressed in CHO-K1 cells incubated for 60 mins in presence of alpha-Me-5HT by HTRF method; type: functional, cell-based
T3 sequence (whole entry): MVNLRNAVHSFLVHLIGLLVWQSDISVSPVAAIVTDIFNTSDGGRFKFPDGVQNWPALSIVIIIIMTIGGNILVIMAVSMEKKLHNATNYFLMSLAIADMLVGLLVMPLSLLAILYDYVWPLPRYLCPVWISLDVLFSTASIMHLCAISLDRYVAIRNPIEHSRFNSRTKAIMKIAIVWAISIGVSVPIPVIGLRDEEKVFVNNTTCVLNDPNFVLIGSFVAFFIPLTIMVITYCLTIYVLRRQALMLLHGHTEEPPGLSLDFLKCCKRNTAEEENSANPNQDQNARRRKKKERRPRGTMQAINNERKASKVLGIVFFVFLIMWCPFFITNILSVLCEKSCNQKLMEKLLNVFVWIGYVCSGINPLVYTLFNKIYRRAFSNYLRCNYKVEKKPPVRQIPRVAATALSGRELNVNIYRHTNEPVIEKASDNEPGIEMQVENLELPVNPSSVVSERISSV

[8] = target: Muscarinic acetylcholine receptor M3 (Homo sapiens) (UniProt P20309); experiment: Agonist activity at recombinant human M3 receptor expressed in CHO-K1 cells incubated for 15 mins by aequorin assay; type: functional, cell-based
Chain of Muscarinic acetylcholine receptor M3 (Homo sapiens) (P20309 whole entry, looked up): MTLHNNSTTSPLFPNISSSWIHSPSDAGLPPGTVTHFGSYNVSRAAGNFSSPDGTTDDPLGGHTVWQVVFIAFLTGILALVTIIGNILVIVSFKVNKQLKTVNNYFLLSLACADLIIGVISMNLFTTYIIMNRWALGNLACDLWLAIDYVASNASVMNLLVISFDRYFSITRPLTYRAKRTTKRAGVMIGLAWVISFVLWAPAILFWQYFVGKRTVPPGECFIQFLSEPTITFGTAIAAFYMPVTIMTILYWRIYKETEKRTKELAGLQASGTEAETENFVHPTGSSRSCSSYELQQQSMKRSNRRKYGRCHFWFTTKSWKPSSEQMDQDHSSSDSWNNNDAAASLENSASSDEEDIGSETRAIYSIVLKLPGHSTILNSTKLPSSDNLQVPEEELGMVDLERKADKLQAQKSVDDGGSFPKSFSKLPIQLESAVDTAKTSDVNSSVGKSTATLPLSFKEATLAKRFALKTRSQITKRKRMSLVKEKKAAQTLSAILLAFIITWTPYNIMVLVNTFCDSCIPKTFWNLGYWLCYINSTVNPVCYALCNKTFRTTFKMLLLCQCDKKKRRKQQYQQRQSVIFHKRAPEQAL

[9] = target: T1, Muscarinic acetylcholine receptor M1 (Homo sapiens); experiment: Displacement of [3H]-Scopolamine from M1 receptor (unknown origin) by Topcount scintillation counting method
[10] = target: 5-hydroxytryptamine receptor 2A (Homo sapiens) (UniProt P28223); experiment: Agonist activity at recombinant human 5HT2AR expressed in CHO-K1 cells incubated for 60 mins by HTRF method; type: functional, cell-based
[11] = target: T4, Muscarinic acetylcholine receptor M5 (Homo sapiens) (UniProt P08912); experiment: Displacement of [3H]-Scopolamine from M5 receptor (unknown origin) by Topcount scintillation counting method
T4 sequence (whole entry): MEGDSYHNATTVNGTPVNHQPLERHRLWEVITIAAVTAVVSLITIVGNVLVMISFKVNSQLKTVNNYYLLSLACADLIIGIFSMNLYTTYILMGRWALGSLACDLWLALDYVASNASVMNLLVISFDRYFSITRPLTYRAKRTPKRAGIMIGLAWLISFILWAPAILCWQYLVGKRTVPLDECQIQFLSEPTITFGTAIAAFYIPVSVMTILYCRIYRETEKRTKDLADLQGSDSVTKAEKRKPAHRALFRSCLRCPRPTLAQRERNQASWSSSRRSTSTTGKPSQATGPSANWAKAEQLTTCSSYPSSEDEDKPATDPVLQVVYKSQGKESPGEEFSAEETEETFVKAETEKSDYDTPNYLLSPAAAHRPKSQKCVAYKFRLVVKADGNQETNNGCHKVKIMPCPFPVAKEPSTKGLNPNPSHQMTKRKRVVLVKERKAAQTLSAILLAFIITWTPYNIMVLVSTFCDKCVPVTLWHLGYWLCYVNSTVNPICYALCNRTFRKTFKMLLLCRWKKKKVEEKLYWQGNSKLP

[12] = target: T5, Muscarinic acetylcholine receptor M2 (Homo sapiens) (UniProt P08172); experiment: Displacement of [3H]-Scopolamine from M2 receptor (unknown origin) by Topcount scintillation counting method
T5 sequence (whole entry): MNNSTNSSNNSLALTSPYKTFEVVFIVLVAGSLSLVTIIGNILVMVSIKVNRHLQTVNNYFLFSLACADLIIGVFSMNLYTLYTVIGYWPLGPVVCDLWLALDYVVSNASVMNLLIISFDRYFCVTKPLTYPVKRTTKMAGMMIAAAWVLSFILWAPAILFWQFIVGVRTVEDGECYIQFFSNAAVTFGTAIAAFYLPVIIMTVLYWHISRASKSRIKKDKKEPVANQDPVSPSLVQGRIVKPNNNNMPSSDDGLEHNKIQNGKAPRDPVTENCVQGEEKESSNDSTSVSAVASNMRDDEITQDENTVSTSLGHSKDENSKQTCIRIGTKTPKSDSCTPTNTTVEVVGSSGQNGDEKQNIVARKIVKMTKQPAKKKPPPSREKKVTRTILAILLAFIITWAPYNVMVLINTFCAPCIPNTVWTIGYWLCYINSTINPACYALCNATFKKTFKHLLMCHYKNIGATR

[13] = target: T4, Muscarinic acetylcholine receptor M5 (Homo sapiens); experiment: Antagonist activity at recombinant human M5 receptor expressed in CHO-K1 cells incubated for 15 mins in presence of acetylcholine by aequorin assay; type: functional, cell-based
[14] = target: T1, Muscarinic acetylcholine receptor M1 (Homo sapiens); experiment: Antagonist activity at recombinant human M1 receptor expressed in CHO-K1 cells incubated for 15 mins in presence of acetylcholine by aequorin assay; type: functional, cell-based
[15] = target: T4, Muscarinic acetylcholine receptor M5 (Homo sapiens); experiment: Agonist activity at recombinant human M5 receptor expressed in CHO-K1 cells incubated for 15 mins by aequorin assay; type: functional, cell-based
[16] = target: T3, 5-hydroxytryptamine receptor 2C (Homo sapiens); experiment: Agonist activity at recombinant human 5HT2CR expressed in CHO-K1 cells incubated for 60 mins by HTRF method; type: functional, cell-based
[17] = target: T3, 5-hydroxytryptamine receptor 2C (Homo sapiens); experiment: Displacement of [3H]-DOI from 5HT2CR (unknown origin) by Topcount scintillation counting method
[18] = target: Muscarinic acetylcholine receptor M3 (Homo sapiens) (UniProt P20309); experiment: Antagonist activity at recombinant human M3 receptor expressed in CHO-K1 cells incubated for 15 mins in presence of acetylcholine by aequorin assay; type: functional, cell-based
[19] = target: T5, Muscarinic acetylcholine receptor M2 (Homo sapiens); experiment: Antagonist activity at M2 receptor (unknown origin) incubated for 1 hr in presence of acetylcholine by GTPgamma[35S] based Topcount scintillation counting method; type: functional
[20] = target: Muscarinic acetylcholine receptor M3 (Homo sapiens) (UniProt P20309); experiment: Displacement of [3H]-Scopolamine from M3 receptor (unknown origin) by Topcount scintillation counting method
[21] = target: T2, Muscarinic acetylcholine receptor M4 (Homo sapiens); experiment: Agonist activity at M4 receptor (unknown origin) by GTPgamma[35S] based Topcount scintillation counting method; type: functional
[22] = target: T2, Muscarinic acetylcholine receptor M4 (Homo sapiens); experiment: Antagonist activity at M4 receptor (unknown origin) incubated for 1 hr in presence of oxotremorine by GTPgamma[35S] based Topcount scintillation counting method; type: functional
[23] = target: T5, Muscarinic acetylcholine receptor M2 (Homo sapiens); experiment: Agonist activity at M2 receptor (unknown origin) by GTPgamma[35S] based Topcount scintillation counting method; type: functional
Neuron [24] = experiment: Neuroplasticity effect in Wistar rat brain cortical neuron assessed as increase in neurite outgrowth after 72 hrs; type: functional, cell-based; conditions: dose 0.25-10 µM

COc1ccc2[nH]c3c(c2c1)[C@H]1CC[C@@H](C3)N1C
Activity (Neuron [1]): inactive

CN1[C@H]2CCC[C@@H]1[C@@H](c1ccccc1F)C2
Activity (Neuron [1]): inactive | Activity (Neuron [2]): Toxic

COc1cccc(CCN2[C@@H]3CCC[C@H]2CC3)c1
Activity (Neuron [1]): Active

Fc1ccccc1CCN1[C@@H]2CCC[C@H]1CC2
Activity (Neuron [1]): Active

COc1ccc(CN2[C@H]3CC(=O)C[C@@H]2[C@@H](O)C3)cc1
Activity [3]: inactive | Activity [4]: inactive | Activity [5]: inactive | Activity [6]: inactive | Activity [7]: inactive | Activity [8]: inactive | Activity [9]: inactive | Activity [10]: inactive | Activity [11]: inactive | Activity (Neuron [1]): Active | Activity [12]: inactive | Activity [13]: inactive | Activity [14]: inactive | Activity [15]: inactive | Activity [16]: inactive | Activity [17]: inactive | Activity [18]: inactive | Activity [19]: inactive | Activity [20]: inactive | Activity [21]: inactive | Activity [22]: inactive | Activity [23]: inactive

CN1[C@H]2C[C@@H](OC(=O)c3ccccc3)C[C@@H]1[C@@H](c1ccccc1)C2
Activity (Neuron [1]): Active | Activity ([14]; filed as antagonist): Active

COc1ccc([C@H]2C[C@@H]3CCC[C@H]2N3C)cc1
Activity (Neuron [1]): inactive | Activity (Neuron [2]): Toxic

CN1[C@H]2C[C@H](O)C[C@@H]1[C@@H](c1ccccc1)C2
Activity (Neuron [1]): inactive

CN1[C@@H]2CCC[C@H]1[C@H]1[C@@H]2N1c1cccnc1
Activity (Neuron [1]): inactive

CN1[C@@H]2CC[C@H]1C[C@H](OC(=O)/C=C/c1ccccc1)C2
Activity (Neuron [24]): Dose-Dependent Effect

COc1ccccc1[C@H]1C[C@@H]2CCC[C@H]1N2C
Activity (Neuron [1]): inactive

O=C1C[C@H]2C[C@H](O)[C@@H](C1)N2CCc1c[nH]c2ccccc12
Activity (Neuron [1]): Active

c1ccc(CCN2[C@@H]3CCC[C@H]2CC3)cc1
Activity (Neuron [1]): Active

CN1[C@@H]2CC[C@H]1C[C@H](OC(=O)c1ccccc1)C2
Activity (Neuron [1]): inactive

CN1[C@H]2CC[C@@H]1C=C(c1c[nH]c3ccccc13)C2
Activity ([7]; filed as antagonist): Active | Activity (Neuron [1]): inactive

CN1[C@@H]2CCC[C@H]1[C@H]1[C@@H]2N1c1ccc2[nH]ccc2c1
Activity (Neuron [1]): inactive

CN1[C@H]2CCC[C@@H]1[C@@H](c1cccc(F)c1)C2
Activity (Neuron [1]): Active | Activity ([14]; filed as antagonist): Active

COc1ccc(CCN2[C@@H]3CCC[C@H]2CC3)cc1
Activity (Neuron [1]): inactive | Activity (Neuron [2]): Toxic

CN1[C@H]2CCC[C@@H]1[C@@H](c1ccccc1)C2
Activity (Neuron [1]): inactive

Fc1ccc(CCN2[C@@H]3CCC[C@H]2CC3)cc1
Activity (Neuron [1]): Active

COc1ccccc1CCN1[C@@H]2CCC[C@H]1CC2
Activity ([3]; filed as agonist): Active | Activity ([5]; filed as agonist): Active | Activity ([8]; filed as agonist): Active | Activity ([10]; filed as agonist): Active | Activity ([15]; filed as agonist): Active | Activity ([16]; filed as agonist): Active | Activity ([17]; filed as agonist): Active | Activity ([21]; filed as agonist): Active | Activity ([23]; filed as agonist): Active

CN1[C@H]2C[C@H](OC(=O)c3ccccc3)C[C@@H]1[C@@H](c1ccccc1)C2
Activity (Neuron [1]): inactive | Activity ([14]; filed as antagonist): Active

CN1[C@H]2C[C@@H](O)C[C@@H]1[C@@H](c1ccccc1)C2
Activity (Neuron [1]): inactive

CN1[C@@H]2CCC[C@H]1[C@H]1[C@@H]2N1c1ccccc1
Activity (Neuron [1]): inactive

CN1[C@H]2CCC[C@@H]1[C@@H](c1ccc(F)cc1)C2
Activity (Neuron [1]): inactive

COc1cccc([C@H]2C[C@@H]3CCC[C@H]2N3C)c1
Activity (Neuron [1]): Active | Activity ([14]; filed as antagonist): Active

From ChEMBL document CHEMBL5523743, “Identification of Psychoplastogenic Tropanes Lacking Muscarinic Activity” (J Med Chem, 2024)
